According to ChEMBL document CHEMBL2440076, “New triarylpyrazoles as broad-spectrum anticancer agents: design, synthesis, and biological evaluation” (Eur J Med Chem, 2013):
pIC50: −log10 of the molar value.

Key:
[1] = test system: IGROV-1; assay: Growth inhibition of human IGROV1 cells assessed as cell growth at 10 uM after 48 hrs by sulforhodamine B assay; assay type: functional; settings: IGROV-1, 48 h, read-out: Activity
[2] = test system: SN12C; assay: Growth inhibition of human SN12C cells after 48 hrs by sulforhodamine B assay; assay type: functional
[3] = test system: COLO 205; assay: Growth inhibition of human COLO205 cells assessed as cell growth at 10 uM after 48 hrs by sulforhodamine B assay; assay type: functional; settings: COLO 205, 48 h, read-out: Activity
[4] = test system: K562; assay: Growth inhibition of human K562 cells assessed as cell growth at 10 uM after 48 hrs by sulforhodamine B assay; assay type: functional; settings: K562, 48 h, read-out: Activity
[5] = test system: NCI-H226; assay: Growth inhibition of human NCI-H226 cells after 48 hrs by sulforhodamine B assay; assay type: functional; settings: NCI-H226, 48 h
[6] = test system: CCRF-CEM; assay: Growth inhibition of human CCRF-CEM cells assessed as cell growth at 10 uM after 48 hrs by sulforhodamine B assay; assay type: functional; settings: read-out: Activity
[7] = test system: UACC-257; assay: Growth inhibition of human UACC257 cells after 48 hrs by sulforhodamine B assay; assay type: functional; settings: UACC-257, 48 h
[8] = test system: U-251; assay: Growth inhibition of human U251 cells assessed as cell growth at 10 uM after 48 hrs by sulforhodamine B assay; assay type: functional; settings: U-251, 48 h, read-out: Activity
[9] = test system: SR; assay: Growth inhibition of human SR cells after 48 hrs by sulforhodamine B assay; assay type: functional
[10] = test system: MCF7; assay: Growth inhibition of human MCF7 cells assessed as cell growth at 10 uM after 48 hrs by sulforhodamine B assay; assay type: functional; settings: MCF7, 48 h, read-out: Activity
[11] = Growth inhibition of human HCC2998 cells after 48 hrs by sulforhodamine B assay; assay type: functional; settings: HCC 2998, 48 h
[12] = test system: CCRF-CEM; assay: Growth inhibition of human CCRF-CEM cells after 48 hrs by sulforhodamine B assay; assay type: functional
[13] = test system: A498; assay: Growth inhibition of human A498 cells assessed as cell growth at 10 uM after 48 hrs by sulforhodamine B assay; assay type: functional; settings: A498, 48 h, read-out: Activity
[14] = test system: MDA-MB-231; assay: Growth inhibition of human MDA-MB-231 cells assessed as cell growth at 10 uM after 48 hrs by sulforhodamine B assay; assay type: functional; settings: MDA-MB-231, 48 h, read-out: Activity
[15] = test system: RPMI-8226; assay: Growth inhibition of human RPMI8226 cells after 48 hrs by sulforhodamine B assay; assay type: functional, cell-based; settings: RPMI-8226, 48 h
[16] = test system: CAKI-1; assay: Growth inhibition of human CAKI-1 cells assessed as cell growth at 10 uM after 48 hrs by sulforhodamine B assay; assay type: functional; settings: CAKI-1, 48 h, read-out: Activity
[17] = test system: SF-268; assay: Growth inhibition of human SF268 cells after 48 hrs by sulforhodamine B assay; assay type: functional; settings: SF-268, 48 h
[18] = test system: UO-31; assay: Growth inhibition of human UO31 cells after 48 hrs by sulforhodamine B assay; assay type: functional; settings: UO-31, 48 h
[19] = test system: TK-10; assay: Growth inhibition of human TK10 cells after 48 hrs by sulforhodamine B assay; assay type: functional; settings: TK-10, 48 h
[20] = test system: MDA-MB-435; assay: Growth inhibition of human MDA-MB-435 cells after 48 hrs by sulforhodamine B assay; assay type: functional, cell-based; settings: MDA-MB-435, 48 h
[21] = test system: NCI-H226; assay: Growth inhibition of human NCI-H226 cells assessed as cell growth at 10 uM after 48 hrs by sulforhodamine B assay; assay type: functional; settings: NCI-H226, 48 h, read-out: Activity
[22] = test system: KM12; assay: Growth inhibition of human KM12 cells after 48 hrs by sulforhodamine B assay; assay type: functional, cell-based; settings: KM12, 48 h
[23] = test system: SW-620; assay: Growth inhibition of human SW620 cells after 48 hrs by sulforhodamine B assay; assay type: functional; settings: SW-620, 48 h
[24] = test system: M14; assay: Growth inhibition of human M14 cells after 48 hrs by sulforhodamine B assay; assay type: functional; settings: M14, 48 h
[25] = test system: HCT-116; assay: Growth inhibition of human HCT116 cells assessed as cell growth at 10 uM after 48 hrs by sulforhodamine B assay; assay type: functional; settings: HCT-116, 48 h, read-out: Activity
[26] = test system: Malme-3M; assay: Growth inhibition of human MALME-3M cells assessed as cell growth at 10 uM after 48 hrs by sulforhodamine B assay; assay type: functional; settings: read-out: Activity
[27] = Growth inhibition of human NCI-ADR-RES cells assessed as cell growth at 10 uM after 48 hrs by sulforhodamine B assay; assay type: functional; settings: read-out: Activity
[28] = test system: OVCAR-4; assay: Growth inhibition of human OVCAR4 cells after 48 hrs by sulforhodamine B assay; assay type: functional; settings: OVCAR-4, 48 h
[29] = test system: SNB-75; assay: Growth inhibition of human SNB75 cells after 48 hrs by sulforhodamine B assay; assay type: functional; settings: SNB-75, 48 h
[30] = test system: A498; assay: Growth inhibition of human A498 cells after 48 hrs by sulforhodamine B assay; assay type: functional, cell-based; settings: A498, 48 h
[31] = test system: UACC-62; assay: Growth inhibition of human UACC62 cells after 48 hrs by sulforhodamine B assay; assay type: functional; settings: UACC-62, 48 h
[32] = test system: ACHN; assay: Growth inhibition of human ACHN cells assessed as cell growth at 10 uM after 48 hrs by sulforhodamine B assay; assay type: functional; settings: read-out: Activity
[33] = test system: DU-145; assay: Growth inhibition of human DU145 cells assessed as cell growth at 10 uM after 48 hrs by sulforhodamine B assay; assay type: functional; settings: DU-145, 48 h, read-out: Activity
[34] = test system: T47D; assay: Growth inhibition of human T47D cells assessed as cell growth at 10 uM after 48 hrs by sulforhodamine B assay; assay type: functional; settings: read-out: Activity
[35] = test system: SK-OV-3; assay: Growth inhibition of human SKOV3 cells assessed as cell growth at 10 uM after 48 hrs by sulforhodamine B assay; assay type: functional; settings: SK-OV-3, 48 h, read-out: Activity
[36] = read-out: LC50 (the source's name)

Compound `COc1cc(-c2nn(-c3cccc(NC(=O)Nc4cc(C(F)(F)F)cc(C(F)(F)F)c4)c3)cc2-c2ccncc2)ccc1Cl` has a growth at 10 µM [1] of 19.9%, a GI50 [2] of 932 nM and a TGI [2] of 3320 nM. For the same compound, the CC50 [2, 36] was > 50000 nM, the growth at 10 µM [3] was -98.7% and the growth at 10 µM [4] was -10.7%. For the same compound, the GI50 [5] was 1360 nM, the TGI [5] was 21800 nM and the CC50 [5, 36] was > 50000 nM. For the same compound, the growth at 10 µM [6] was -27.3%, the GI50 [7] was 916 nM and the TGI [7] was 2350 nM. It also gave a CC50 [7, 36] of 26200 nM, a growth at 10 µM [8] of -81.8% and a GI50 [9] of 1080 nM. The TGI [9] was 3970 nM, the CC50 [9, 36] was > 50000 nM and the growth at 10 µM [10] was 1.74%. For the same compound, the GI50 [11] was 931 nM, the TGI [11] was 1870 nM and the CC50 [11, 36] was 3760 nM. The GI50 [12] was 498 nM, the LC50 [12] was > 50000 nM and the TGI [12] was 2790 nM. For the same compound, the growth at 10 µM [13] was -14.6%, the growth at 10 µM [14] was -92% and the GI50 [15] was 307 nM. For the same compound, the pIC50 [15] was 6.51, the TGI [15] was > 50000 nM and the CC50 [15, 36] was > 50000 nM. The growth at 10 µM [16] was 18.5%, the GI50 [17] was 978 nM and the TGI [17] was 2430 nM. For the same compound, the CC50 [17, 36] was > 50000 nM, the GI50 [18] was 600 nM and the TGI [18] was 1280 nM. The CC50 [18, 36] was 2730 nM, the GI50 [19] was 894 nM and the TGI [19] was 2480 nM. For the same compound, the CC50 [19, 36] was 10100 nM, the GI50 [20] was 886 nM and the pIC50 [20] was 6.05. It also gave a TGI [20] of 1990 nM, a CC50 [20, 36] of 4460 nM and a growth at 10 µM [21] of 8.68%. The GI50 [22] was 531 nM, the pIC50 [22] was 6.28 and the TGI [22] was 1340 nM. It also gave a CC50 [22, 36] of 3390 nM, a GI50 [23] of 715 nM and a TGI [23] of 1860 nM. The CC50 [23, 36] was 4870 nM, the GI50 [24] was 808 nM and the LC50 (concentration killing 50% of cells) [24] was > 50000 nM. It also gave a TGI [24] of 2550 nM, a growth at 10 µM [25] of -43.6% and a growth at 10 µM [26] of -10.7%. For the same compound, the growth at 10 µM [27] was 1.11%, the GI50 [28] was 1120 nM and the LC50 (concentration killing 50% of cells) [28] was > 50000 nM. For the same compound, the TGI [28] was 9640 nM, the GI50 [29] was 858 nM and the LC50 (lethal concentration, 50% net cell kill) [29] was 5310 nM. The TGI [29] was 2070 nM, the GI50 [30] was 612 nM and the pIC50 [30] was 6.21. For the same compound, the TGI [30] was 1900 nM, the CC50 [30, 36] was 7140 nM and the GI50 [31] was 661 nM. It also gave an LC50 (50% lethal concentration) [31] of 3780 nM, a TGI [31] of 1580 nM and a growth at 10 µM [32] of 10.6%. It also gave a growth at 10 µM [33] of 3.89%, a growth at 10 µM [34] of 4.45% and a growth at 10 µM [35] of -9.79%.
Compound `O=C(Nc1cccc(-n2cc(-c3ccncc3)c(-c3ccc(Cl)c(O)c3)n2)c1)c1ccccc1` has a growth at 10 µM [1] of 88%, a growth at 10 µM [3] of 100% and a growth at 10 µM [4] of 60.7%. The growth at 10 µM [6] was 67.5%, the growth at 10 µM [8] was 75.4% and the growth at 10 µM [10] was 62.6%. The growth at 10 µM [13] was 72.3%, the growth at 10 µM [14] was 63.2% and the growth at 10 µM [16] was 90.3%. The growth at 10 µM [21] was 89.6%, the growth at 10 µM [25] was 57.8% and the growth at 10 µM [26] was 53.1%. For the same compound, the growth at 10 µM [27] was 62.7%, the growth at 10 µM [32] was 53.2% and the growth at 10 µM [33] was 56.9%. For the same compound, the growth at 10 µM [34] was 73.9% and the growth at 10 µM [35] was 80.1%.
For `COc1cc(-c2nn(-c3cccc(NC(=O)c4ccc(Br)c(C)c4)c3)cc2-c2ccncc2)ccc1Cl`, the growth at 10 µM [1] was 76.2%, the growth at 10 µM [3] was 76.2% and the growth at 10 µM [4] was 77.3%. The growth at 10 µM [6] was 74.6%, the growth at 10 µM [8] was 73.7% and the growth at 10 µM [10] was 75%. The growth at 10 µM [13] was 68%, the growth at 10 µM [14] was 67% and the growth at 10 µM [16] was 86.8%. For the same compound, the growth at 10 µM [21] was 84.7%, the growth at 10 µM [25] was 70.3% and the growth at 10 µM [26] was 52.7%. It also gave a growth at 10 µM [27] of 66.5%, a growth at 10 µM [32] of 70.2% and a growth at 10 µM [33] of 102%. For the same compound, the growth at 10 µM [34] was 70.3% and the growth at 10 µM [35] was 90.8%.
